Experimental data published in paper PMC10327353 (Breast Cancer Research : BCR, 2023).
pIC50: −log10 of the molar value.

Legend:
[1] = target: HER2 (Homo sapiens, UniProt P04626); test: pHER2 MSD assay in BT474C1 cells; type: cell-based; set-up: endogenous in cells; host or cells: BT474C1-Luci Mono1 (BT474 transfected with luciferase only); conditions: BT474C1, 4 hrs treatment
Protocol: A431 and BT474C1-Luci Mono1 cells were seeded in 96-well plates at 20,000 cells/well in DMEM medium containing 1% FBS. After overnight incubation, all cells were treated with compounds at a series of concentrations for 4 hrs. For A431 cell line, an extra stimulation with recombinant human EGF (100 ng/ml for 10 minutes) is applied to activate wild-type EGFR following compound treatment. pEGFR^Y1068 and total EGFR levels were measured by an electro chemiluminescent method (MULTI-SPOT®96 4-Spot HB Prototype EGFR Triplex […]: pEGFR (Y1068), Total EGFR; MESO SCALE DISCOVERY, Cat# N45ZB-1) with MSD SECTOR® Imager, which outputs the ratio of pEGFR/total EGFR for each well. pHER2^Y1248 and total HER2 levels were measured similarly using pHER2 (Y1248) Assay Whole Cell Lysate Kit (MESO SCALE DISCOVERY, Cat# K151CLD-3). The percentage of inhibition was calculated as: % Inhibition = 100 x [1 - (ratio of the sample well - ratio of Min ctrl well)/ (ratio of Max ctrl well - ratio of Min ctrl well)].

[2] = tested on: BT474C1 cells; test: Cell proliferation assay (CellTiter-Glo), BT474C1; type: cell-based, human; conditions: Homo sapiens; BT474C1, 72 hrs
Protocol: BT474C1-Luci Mono1 cells were seeded in 384-well plates at 1500 cells/well in DMEM medium containing 10% FBS and 1 mM Oxaloacetic acid (OAA). A431 cells were seeded in 384-well plates at 1,000 cells/well in DMEM medium containing 10% FBS. After overnight incubation, cells were treated with compounds at various concentrations for 3 days. Then cell viability was measured using a CellTiter-Glo Luminescent Cell Viability Assay from Promega Corp. according to the manufacturer's instructions.

[3] = Caco-2 passive permeability; type: in vitro ADME; conditions: human, Caco-2, pH 7.4; read-out: Caco-2 Papp (intrinsic passive permeability)
Description: Passive permeability (Papp) characterizes the rate across the cell membrane due to passive diffusion. A high permeability enables the rapid establishment of equilibrium among plasma, CSF, and brain compartments. Except for passive permeability, sufficient unbound drug concentration in the brain is governed by efflux transporters, including P-gp (MDR1, ABCB1) and BCRP, at BBB. Efflux ratio (ER) reflects the liability of a compound to be pumped out of the brain by BBB efflux transporters, which is indicated by the distribution disequilibrium between the plasma and the brain compartments.
Again, DZD1516 and DZ2678 permeability were evaluated in a bi-directional assay in Caco-2 cells at 5 μM. The efflux ratio of DZD1516 and DZ2678, with or without novobiocin (a selective BCRP inhibitor), determined whether DZD1516 or DZ2678 was transported via BCRP in Caco-2 cells. The apical-to-basolateral (A-B) and basolateral-to-apical (B-A) transport of DZD1516/DZ2678 in HBSS (25 mM HEPES, pH 7.4) with 0.1% BSA was measured across Caco-2 cell monolayers in the absence and presence of BCRP inhibitor, novobiocin (30 μM). […] Transport of 5 µM DZD1516/DZ2678 and control compound was determined by quantifying substrate concentration in the incubation medium of the donor compartment at the beginning of the incubation period and both donor and receiver compartments at the end of the incubation period. […]

[4] = tested on: HER2+ metastatic breast cancer; test: Phase 1 study: antitumor activity (modified RECIST v1.1); type: in vivo, human
Protocol: (§1) Tumor imaging assessments were conducted every 6 weeks during the first 24 weeks (relative to C1D1) and every 9 weeks thereafter per investigator review according to modified RECIST v1.1 until progressive disease, starting a new anticancer therapy or withdrawal of informed consent (Additional file 1).
as §1, with “six” for “6”, “nine” for “9”, “anti-cancer” for “anticancer”, “consent. Patients who achieved an objective response had confirmatory scans at least four weeks apart.” for “consent (Additional file 1).”
The modified RECIST 1.1 used in this study includes both CNS assessment and extracranial assessment. A maximum of five measurable extracranial lesions, with a maximum of two lesions per organ, were selected in patients with extracranial disease. In addition, a maximum of five measurable intracranial lesions were selected in patients with intracranial disease. […] An overall response will be derived based on extracranial and intracranial response as described in the below table.

[5] = Human hepatocyte intrinsic clearance; type: in vitro ADME; conditions: human hepatocytes; read-out: Human Heps Clint
[6] = target: T1, pHER2 (Homo sapiens, UniProt P04626); test: pHER2 IHC (PD) in SC xenograft tumor tissue after single dose; type: in vivo, mice
T1 construct: from tissue; host or cells: subcutaneous BT474C1-Luci Mono1 xenograft tumour tissue from nude mice
Protocol: The subcutaneous xenograft tissues were collected from mice after a single dose of vehicle or DZD1516. Samples were snap-frozen for analysis. Tissues from animals were analyzed at each time point IHC was performed on 5 μm frozen sections using a Ventana discovery XT automation (Roche) for pHER2 (Catalog #) IHC staining. The stained IHC slides were firstly reviewed and interpreted by a qualified pathologist and then quantified by the Imagescope software of Aperio system. The “H” score quantified by Aperio system will be corrected by a pathologist. Statistical analysis was performed by t-test.

T1 sequence (P04626 23-1255): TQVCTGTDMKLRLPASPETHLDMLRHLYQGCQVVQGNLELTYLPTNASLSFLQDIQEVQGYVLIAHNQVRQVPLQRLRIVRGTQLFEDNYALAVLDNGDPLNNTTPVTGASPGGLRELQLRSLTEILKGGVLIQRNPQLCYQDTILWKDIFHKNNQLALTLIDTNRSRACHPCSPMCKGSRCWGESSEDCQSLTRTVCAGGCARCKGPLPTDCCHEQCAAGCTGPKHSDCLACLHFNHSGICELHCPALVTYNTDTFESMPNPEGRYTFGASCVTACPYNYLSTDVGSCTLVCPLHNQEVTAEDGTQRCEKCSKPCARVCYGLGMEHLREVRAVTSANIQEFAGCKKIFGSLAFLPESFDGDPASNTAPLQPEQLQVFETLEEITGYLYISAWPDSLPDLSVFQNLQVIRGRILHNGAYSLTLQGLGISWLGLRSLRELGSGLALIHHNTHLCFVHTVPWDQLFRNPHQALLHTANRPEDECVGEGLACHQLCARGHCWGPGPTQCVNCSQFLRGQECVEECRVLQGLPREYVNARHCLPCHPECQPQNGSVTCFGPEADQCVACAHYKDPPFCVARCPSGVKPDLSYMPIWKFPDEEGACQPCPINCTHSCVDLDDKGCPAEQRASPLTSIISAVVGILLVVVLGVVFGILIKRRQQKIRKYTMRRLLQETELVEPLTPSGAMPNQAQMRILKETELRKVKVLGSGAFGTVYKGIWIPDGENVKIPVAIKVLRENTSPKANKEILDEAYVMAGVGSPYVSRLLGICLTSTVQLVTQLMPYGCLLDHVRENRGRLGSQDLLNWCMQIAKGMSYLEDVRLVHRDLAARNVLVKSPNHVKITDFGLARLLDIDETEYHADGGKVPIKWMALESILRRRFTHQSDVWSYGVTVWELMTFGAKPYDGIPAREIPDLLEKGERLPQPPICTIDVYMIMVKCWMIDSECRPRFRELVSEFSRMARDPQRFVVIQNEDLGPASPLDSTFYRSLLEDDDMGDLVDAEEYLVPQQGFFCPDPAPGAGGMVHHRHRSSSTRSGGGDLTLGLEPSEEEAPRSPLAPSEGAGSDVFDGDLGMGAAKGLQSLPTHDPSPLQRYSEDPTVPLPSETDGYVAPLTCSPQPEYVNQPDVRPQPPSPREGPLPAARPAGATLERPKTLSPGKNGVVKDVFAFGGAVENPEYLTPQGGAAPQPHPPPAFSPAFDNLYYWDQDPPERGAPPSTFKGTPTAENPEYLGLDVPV
Chain of HER2 (P04626 23-1255): as above

SMILES: COc1cc(O[C@H]2CCN(C)CC2(F)F)c2c(Nc3ccc(Oc4ccn5ncnc5c4)c(C)c3)ncnc2c1 [DZD1516]
- pIC50 [1]: 8.36
- GI50 [2]: 20 nM
- Papp at 120 min, 5 μM [3]: 90 ×10⁻⁶ cm/s
- disease control rate ([4]; MTD (250 mg), 3/5): 60%
- patients who achieved stable disease ([4]; all dose levels): 6 out of 23
- best antitumor efficacy in intracranial, extracranial and overall lesions ([4]; patients, median seven lines of prior systemic therapy): stable disease
- hepatocyte CLint [5]: 12 µL/min/1e6 cells
- inhibition at 50 mg/kg ([6]; mouse, single dose 50 mg/kg, 0.25 h): > 94%
- inhibition at 150 mg/kg ([6]; mouse, single dose 150 mg/kg): 89%
- duration of pHER2 inhibition ([6]; single dose 50 mg/kg): 6 h
- duration of pHER2 inhibition ([6]; single dose 150 mg/kg): 24 h
